For test [1], the target named is N-succinyl-diaminopimelate aminotransferase (Escherichia coli). The experiment in a line: Compound was tested for binding affinity against N-Succinyl Diaminopimelic Acid Aminotransferase from Escherichia coli.
Test [2] shares this target. The test is described as above. The source holds these as a separate data set.
For test [3] the target is unchanged. Description: Compound was tested for 50% inhibition of N-Succinyl Diaminopimelic Acid Aminotransferase (DAP-AT) from Escherichia coli.

The values that follow come from BindingDB's records for doi:10.1016/s0960-894x(98)00149-8 (University of Bristol, 1999).

Broadly, the IC50 is the midpoint of a concentration-inhibition curve. A word on the Ki: it is a dissociation constant, usually derived from enzyme kinetics or from competition with a known ligand. A low value points to higher affinity. In turn, `NNC(CCC[C@H](NC(=O)CCC(=O)O)C(=O)O)C(=O)O` (stereo partly drawn) [(S)-2-(3-Carboxy-propionylamino)-6-hydrazino-heptanedioic acid] registered an IC50 in test [1] of 0.5 µM. In test [2], this compound returned a Ki of 0.022 µM.

In test [3], `CC(=O)N[C@@H](CC(=O)O)C(=O)N[C@@H](CCCC(NN)C(=O)O)C(=O)O` (stereo partly drawn) [(S)-2-((S)-2-Acetylamino-3-carboxy-propionylamino)-6-hydrazino-heptanedioic acid] returned an IC50 of 0.8 µM. In test [2], this compound came in with a Ki of 0.169 µM. As for `CC(=O)N[C@@H](Cc1ccccc1)C(=O)N[C@@H](CCCC(=O)C(=O)O)C(=O)O` [dilithium 2-[1-methylcarboxamido-2-phenyl-(1S)-ethylcarboxamido]-6-oxo-(2S)-heptanedioate], the IC50 in test [1] is more than 50000 µM.
